Legend:
[1] = target: T1, myosin (Cyprinus carpio, UniProt Q90339); assay: Heat denaturation of myosin at 35° C., followed by loss of Ca-ATPase activity (denaturation rate constant KD); type: biochemical, carp (Cyprinus carpio); conditions: compound added by 1M; myosin heated at 35° C.; FIG. 1
T1 construct: myofibrils were prepared from dorsal meat of carp (Cyprinus carpio); from tissue; host or cells: dorsal muscle of carp
From the text: (§1) In this embodiment, determination of the effect of inhibiting denaturation of fish meat-origin muscular proteins employs a method for calculating a rate of denaturation of myosin based on disappearance of Ca-ATPase activity as bioactivity of myosin {Tohru Oizumi et al.: Gyoruikingenseni-no-kanetsuhensei-ni-taisuru-to-oyobi-toarukohru-no-hogokohka-no-teiryokosatsu (Quantitative Examination of Effect of Protecting Sugars and Sugar Alcohols from Heat Denaturation of Fish Myofibril. Journal of the Japanese Society of Fisheries Science, 47, 901-908 (1981)}. Said method in this embodiment will be described as follows by dividing into a method for determining the effect of inhibiting heat denaturation and a method for determining effect of inhibiting freeze denaturation.
(§2) Firstly, a method for determining the effect of inhibiting heat denaturation is described. […] Then, changes in Ca-ATPase activity of the fish meat-origin muscular proteins heated are analyzed according to a first-order reaction equation to calculate a denaturation rate constant (KD). Ca-ATPase activity is measured by preparing a reaction composition liquid composed of 0.5M KCl, 25 mM Tris-maleate (pH 7.0), 5 mM CaCl2, 1 mM ATP and 0.2 to 0.3 mg/ml of fish meat-origin muscular proteins subjected to heating and ice cold and determining free inorganic phosphate quantitatively. Then, denaturation rate constant is calculated from Ca-ATPase activity obtained and heating time. Consequently, if the denaturation rate constant is smaller, the effect of inhibiting denaturation of fish meat-origin muscular proteins is significant, and if the denaturation rate constant is larger, the effect of inhibiting denaturation of fish meat-origin muscular proteins is small.
After myofibrils were prepared from dorsal meat of carp (Cyprinus carpio) according to a method by Noboru Katoh et al. {Noboru Katoh et al.: Gyruikingenseni-ATPase-no-seikagakuteki-kenkyu (Biochemical Research of Fish Myofibrillary ATPase). Journal of the Japanese Society of Fisheries Science, 43, 857-867 (1977)}, the myofibrils were dissolved in 0.5M KCl in the presence of ATP-Mg and 40 to 55% ammonium sulfate fraction was used as myosin by ammonium sulfate fractionation. […] After 5% perchloric acid was added thereto to stop the reaction and filter the product, free inorganic phosphate was subjected to colorimetric determination by phosphomolybdic acid method to calculate a logarithmic value of denaturation rate constant.

[2] = test system: myofibrillar proteins; assay: Heat denaturation of myofibrillar proteins at 42° C., followed by loss of Ca-ATPase activity (denaturation rate constant KD); type: biochemical, carp (Cyprinus carpio); conditions: for decline of rate of denaturation of myofibrillar proteins (logarithmic value of denaturation rate constant KD): compound added by 1M, myofibrils heated at 42° C., FIG. 2
From the text: as §1, §2
After 5% perchloric acid was added thereto to stop the reaction and filter the product, free inorganic phosphate was subjected to colorimetric determination by phosphomolybdic acid method to calculate a logarithmic value of denaturation rate constant.

[3] = test system: myofibrillar proteins; assay: Freeze denaturation of myofibrillar proteins, remaining Ca-ATPase activity after cryopreservation at −20° C.; type: biochemical, carp (Cyprinus carpio); conditions: approximately 1 month, FIG. 3
Method: Next, a method for determining the effect of inhibiting freeze denaturation will be described. […] In this case, a comparison is made not by an absolute value of denaturation rate constant but a relative value thereof. The measurement of Ca-ATPase activity is the same as above.
The myofibrils were taken approximately 1 month later and added to 0.5M KCl, 25 mM Tris-maleate (pH 7.0), 5 mM CaCl2 and 1 mM ATP to prepare a reaction composition liquid to be reacted at 25° C. After 5% perchloric acid was added thereto to stop the reaction and filter the product, free inorganic phosphate was subjected to colorimetric determination by phosphomolybdic acid method to calculate Ca-ATPase activity and analyze the extent of denaturation observed from the decline of Ca-ATPase activity.

[4] = test system: myofibrillar proteins; assay: Dissolution of myofibrillar proteins, soluble proteins in supernatant after centrifugal separation; type: biochemical, carp (Cyprinus carpio); conditions: addition of 0.6M; FIG. 4
[5] = test system: myofibrillar proteins; conditions: relative to sorbitol; Non-Patent Document 1; cited from earlier work

T1 sequence (Q90339 whole entry): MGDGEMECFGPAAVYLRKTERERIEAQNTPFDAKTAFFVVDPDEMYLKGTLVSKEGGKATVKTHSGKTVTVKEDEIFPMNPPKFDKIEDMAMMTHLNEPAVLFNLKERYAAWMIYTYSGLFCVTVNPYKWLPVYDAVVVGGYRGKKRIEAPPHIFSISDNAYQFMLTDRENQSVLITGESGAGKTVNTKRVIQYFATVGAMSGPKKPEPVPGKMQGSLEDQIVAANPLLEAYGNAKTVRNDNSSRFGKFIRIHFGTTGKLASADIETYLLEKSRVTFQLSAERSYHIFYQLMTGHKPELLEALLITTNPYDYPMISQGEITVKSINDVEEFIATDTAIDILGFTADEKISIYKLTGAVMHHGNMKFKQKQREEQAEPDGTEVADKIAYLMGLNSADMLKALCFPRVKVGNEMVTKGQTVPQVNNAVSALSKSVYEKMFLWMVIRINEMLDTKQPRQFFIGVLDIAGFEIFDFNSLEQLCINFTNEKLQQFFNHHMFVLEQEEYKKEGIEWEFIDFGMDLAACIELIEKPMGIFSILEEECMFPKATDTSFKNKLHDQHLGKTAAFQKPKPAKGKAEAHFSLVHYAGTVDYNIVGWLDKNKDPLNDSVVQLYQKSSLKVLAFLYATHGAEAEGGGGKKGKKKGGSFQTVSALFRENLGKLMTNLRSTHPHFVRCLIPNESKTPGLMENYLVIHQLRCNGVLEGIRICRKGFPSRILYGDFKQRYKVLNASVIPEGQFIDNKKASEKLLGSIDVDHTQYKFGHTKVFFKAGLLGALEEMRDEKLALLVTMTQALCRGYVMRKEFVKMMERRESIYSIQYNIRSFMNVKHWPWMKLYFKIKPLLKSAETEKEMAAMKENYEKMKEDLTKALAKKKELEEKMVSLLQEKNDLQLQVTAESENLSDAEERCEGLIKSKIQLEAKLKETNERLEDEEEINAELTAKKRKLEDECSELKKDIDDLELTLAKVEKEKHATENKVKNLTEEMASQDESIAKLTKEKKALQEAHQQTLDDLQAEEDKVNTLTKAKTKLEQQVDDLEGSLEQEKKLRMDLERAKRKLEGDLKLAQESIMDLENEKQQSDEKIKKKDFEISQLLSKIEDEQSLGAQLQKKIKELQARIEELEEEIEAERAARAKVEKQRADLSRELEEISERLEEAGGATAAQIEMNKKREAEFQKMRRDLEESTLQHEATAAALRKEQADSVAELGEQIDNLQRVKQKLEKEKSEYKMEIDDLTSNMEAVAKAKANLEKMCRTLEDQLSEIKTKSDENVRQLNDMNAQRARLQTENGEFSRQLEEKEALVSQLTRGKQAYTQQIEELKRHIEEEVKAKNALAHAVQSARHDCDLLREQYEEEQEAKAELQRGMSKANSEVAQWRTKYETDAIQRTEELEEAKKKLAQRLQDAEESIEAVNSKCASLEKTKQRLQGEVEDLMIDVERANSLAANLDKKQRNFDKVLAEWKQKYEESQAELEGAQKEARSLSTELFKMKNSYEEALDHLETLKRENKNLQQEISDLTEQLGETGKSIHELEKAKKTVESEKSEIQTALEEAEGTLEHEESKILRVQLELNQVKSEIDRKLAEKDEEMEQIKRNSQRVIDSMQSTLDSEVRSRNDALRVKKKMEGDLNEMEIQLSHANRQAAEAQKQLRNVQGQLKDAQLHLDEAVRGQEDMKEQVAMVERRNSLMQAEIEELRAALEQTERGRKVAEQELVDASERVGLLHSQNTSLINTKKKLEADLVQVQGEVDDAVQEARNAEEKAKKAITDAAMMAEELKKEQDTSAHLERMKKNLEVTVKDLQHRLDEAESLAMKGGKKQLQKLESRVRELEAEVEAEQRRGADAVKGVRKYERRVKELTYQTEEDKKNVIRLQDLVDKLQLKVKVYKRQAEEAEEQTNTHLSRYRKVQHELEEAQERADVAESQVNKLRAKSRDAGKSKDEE

Row | Structure (SMILES) | decline of rate of denaturation of myosin (logarithmic value of denaturation rate constant KD) [1] | decline of rate of denaturation of myofibrillar proteins (logarithmic value of denaturation rate constant KD) [2] | effect of inhibiting freeze denaturation (Ca-ATPase activity), ranking [3] | dissolution of myofibrillar proteins at 0.6M, in words [4] | effect of stabilizing myofibrillar proteins, times sodium gluconate ([2]; relative to sodium gluconate, worked out from own data and Non-Patent Document 1) | inhibition of heat denaturation of myofibrillar proteins, times sorbitol [5]
1 | N[C@@H](CCC(=O)[O-])C(=O)[O-].[Na+].[Na+] [sodium glutamate] | 1.7 | 0.9 | strongest effect of inhibiting freeze denaturation |  |  | 
2 | OC[C@@H](O)[C@@H](O)[C@H](O)[C@@H](O)CO [sorbitol] | 0.7 | 0.6 | smallest effect of inhibiting freeze denaturation, followed by sorbitol | not dissolved at all |  | 
3 | O=C([O-])CC(O)(CC(=O)[O-])C(=O)[O-].[Na+].[Na+].[Na+] [sodium citrate] | 1.7 | 0.9 | strongest effect of inhibiting freeze denaturation |  | at least 1.3 times | 
4 | O=C([O-])[C@H](O)[C@@H](O)[C@H](O)[C@H](O)CO.[Na+] [sodium gluconate] |  |  |  |  |  | about 1.5 times
5 | CC(=O)[O-].[Na+] [sodium acetate] | 1.1 | 0.3 | smallest effect of inhibiting freeze denaturation |  |  | 

Reference: patent publication US20100119655A1, “MUSCULAR PROTEIN DENATURATION INHIBITOR, ADDITIVE FOR A FISH MEAT-ORIGIN GROUND MEAT, FISH MEAT-ORIGIN GROUND MEAT CONTAINING THE SAME AND METHOD OF PRODUCING THE SAME” (Nagasaki Prefectural Government, priority 2007, published 2010)
